Test results: PubChem BioAssay (NCI)
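A five-concentration, 48-hour dose response in 96-well plates underlies each endpoint, interpolated linearly between surrounding concentrations. GI50 = concentration required for 50% inhibition of growth. TGI is the concentration that stops growth completely.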

Legend:
Experiment in all cases: inhibition of tumour cell growth, NCI panel, 48 h
786-0 renal = system: 786-0 renal
A498 renal = system: A498 renal
A549 NSCLC = system: A549 NSCLC
ACHN renal = system: ACHN renal
BT-549 breast = system: BT-549 breast
CAKI-1 renal = system: CAKI-1 renal
CCRF-CEM leukemia = system: CCRF-CEM leukemia
COLO 205 colon = system: COLO 205 colon
DU-145 prostate = system: DU-145 prostate
EKVX NSCLC = system: EKVX NSCLC
HCC-2998 colon = system: HCC-2998 colon
HCT-116 colon = system: HCT-116 colon
HCT-15 colon = system: HCT-15 colon
HL-60(TB) leukemia = system: HL-60(TB) leukemia
HOP-62 NSCLC = system: HOP-62 NSCLC
HOP-92 NSCLC = system: HOP-92 NSCLC
HS 578T breast = system: HS 578T breast
HT29 colon = system: HT29 colon
IGROV1 ovarian = system: IGROV1 ovarian
K-562 leukemia = system: K-562 leukemia
KM12 colon = system: KM12 colon
LOX IMVI melanoma = system: LOX IMVI melanoma
M14 melanoma = system: M14 melanoma
MALME-3M melanoma = system: MALME-3M melanoma
MCF7 breast = system: MCF7 breast
MDA-MB-435 = system: MDA-MB-435
MDA-MB-468 breast = system: MDA-MB-468 breast
MOLT-4 leukemia = system: MOLT-4 leukemia
NCI-H226 lung = system: NCI-H226 lung
NCI-H23 lung = system: NCI-H23 lung
NCI-H460 lung = system: NCI-H460 lung
NCI-H522 lung = system: NCI-H522 lung
NCI/ADR-RES ovarian = system: NCI/ADR-RES ovarian
OVCAR-3 ovarian = system: OVCAR-3 ovarian
OVCAR-4 ovarian = system: OVCAR-4 ovarian
OVCAR-5 ovarian = system: OVCAR-5 ovarian
OVCAR-8 ovarian = system: OVCAR-8 ovarian
PC-3 prostate = system: PC-3 prostate
RPMI-8226 leukemia = system: RPMI-8226 leukemia
RXF 393 renal = system: RXF 393 renal
SF-268 CNS = system: SF-268 CNS
SF-295 CNS = system: SF-295 CNS
SF-539 CNS = system: SF-539 CNS
SK-MEL-28 melanoma = system: SK-MEL-28 melanoma
SK-MEL-5 melanoma = system: SK-MEL-5 melanoma
SK-OV-3 ovarian = system: SK-OV-3 ovarian
SN12C renal = system: SN12C renal
SNB-19 CNS = system: SNB-19 CNS
SR leukemia = system: SR leukemia
SW-620 colon = system: SW-620 colon
T-47D breast = system: T-47D breast
TK-10 renal = system: TK-10 renal
U251 CNS = system: U251 CNS
UACC-257 melanoma = system: UACC-257 melanoma
UACC-62 melanoma = system: UACC-62 melanoma

## O=C1Nc2ccc(F)cc2/C1=C/c1cccc(OCc2ccccn2)c1
786-0 renal
  GI50: 15 µM
  TGI: 29.7 µM
A498 renal
  GI50: 54.3 µM
  TGI: > 100 µM
A549 NSCLC
  GI50: 18.9 µM
  TGI: 59.9 µM
ACHN renal
  GI50: 16.4 µM
  TGI: 33.5 µM
BT-549 breast
  GI50: 15 µM
  TGI: 30.1 µM
CAKI-1 renal
  GI50: 19.6 µM
  TGI: 55.5 µM
CCRF-CEM leukemia
  GI50: 25.9 µM
  TGI: 71.8 µM
COLO 205 colon
  GI50: 16.3 µM
  TGI: 31 µM
DU-145 prostate
  GI50: 18.2 µM
  TGI: 33.5 µM
EKVX NSCLC
  GI50: 13 µM
  TGI: 26.9 µM
HCC-2998 colon
  GI50: 16.3 µM
  TGI: 30.3 µM
HCT-116 colon
  GI50: 13.7 µM
  TGI: 28.5 µM
HCT-15 colon
  GI50: 16.5 µM
  TGI: 34.4 µM
HL-60(TB) leukemia
  GI50: 16.4 µM
  TGI: 39.3 µM
HOP-62 NSCLC
  GI50: 14.4 µM
  TGI: 30.8 µM
HOP-92 NSCLC
  GI50: 11.3 µM
  TGI: 36.3 µM
HS 578T breast
  GI50: 17.6 µM
  TGI: 63.3 µM
HT29 colon
  GI50: 17.5 µM
  TGI: 34.7 µM
IGROV1 ovarian
  GI50: 17 µM
  TGI: 36.2 µM
K-562 leukemia
  GI50: 17.5 µM
  TGI: 57.3 µM
KM12 colon
  GI50: 19 µM
  TGI: 37.3 µM
LOX IMVI melanoma
  GI50: 14.9 µM
  TGI: 29 µM
M14 melanoma
  GI50: 15.7 µM
  TGI: 31.5 µM
MALME-3M melanoma
  GI50: 17.5 µM
  TGI: 40.1 µM
MCF7 breast
  GI50: 12.1 µM
  TGI: 26.4 µM
MDA-MB-435
  GI50: 18.5 µM
  TGI: 36.6 µM
MDA-MB-468 breast
  GI50: 14.2 µM
  TGI: 29.3 µM
MOLT-4 leukemia
  GI50: 17.5 µM
  TGI: 40 µM
NCI-H226 lung
  GI50: 15 µM
  TGI: 29.9 µM
NCI-H23 lung
  GI50: 15 µM
  TGI: 28.8 µM
NCI-H460 lung
  GI50: 19.8 µM
  TGI: 44.4 µM
NCI-H522 lung
  GI50: 15.9 µM
  TGI: 33 µM
NCI/ADR-RES ovarian
  GI50: 16.8 µM
  TGI: 39.3 µM
OVCAR-3 ovarian
  GI50: 15.2 µM
  TGI: 32.4 µM
OVCAR-4 ovarian
  GI50: 22 µM
  TGI: 63.3 µM
OVCAR-5 ovarian
  GI50: 16 µM
  TGI: 31 µM
OVCAR-8 ovarian
  GI50: 16.1 µM
  TGI: 31.7 µM
PC-3 prostate
  GI50: 18.7 µM
  TGI: 48.7 µM
RPMI-8226 leukemia
  GI50: 17.3 µM
  TGI: 48 µM
RXF 393 renal
  GI50: 13.3 µM
  TGI: 26.4 µM
SF-268 CNS
  GI50: 17.1 µM
  TGI: 39.3 µM
SF-295 CNS
  GI50: 16 µM
  TGI: 30.3 µM
SF-539 CNS
  GI50: 16.3 µM
  TGI: 30.4 µM
SK-MEL-28 melanoma
  GI50: 18.4 µM
  TGI: 37.1 µM
SK-MEL-5 melanoma
  GI50: 16.6 µM
  TGI: 30.5 µM
SK-OV-3 ovarian
  GI50: 18.6 µM
  TGI: 50 µM
SN12C renal
  GI50: 16.8 µM
  TGI: 34.4 µM
SNB-19 CNS
  GI50: 17.2 µM
  TGI: 33.2 µM
SR leukemia
  GI50: 16.4 µM
  TGI: 42.6 µM
SW-620 colon
  GI50: 17.2 µM
  TGI: 36 µM
T-47D breast
  GI50: 15 µM
  TGI: 34 µM
TK-10 renal
  GI50: 18.1 µM
  TGI: 32.5 µM
U251 CNS
  GI50: 15.2 µM
  TGI: 33.3 µM
UACC-257 melanoma
  GI50: 14.4 µM
  TGI: 30.1 µM
UACC-62 melanoma
  GI50: 13.6 µM
  TGI: 27.7 µM

## Cc1cc(C)cc(C(=O)Nc2cccc(-c3cn(-c4ccc(S(N)(=O)=O)cc4)nn3)c2)c1
HCT-15 colon
  GI50: > 10 µM
  TGI: > 10 µM
K-562 leukemia
  GI50: 2.92 µM
  TGI: > 10 µM
MOLT-4 leukemia
  GI50: 5.58 µM
  TGI: > 10 µM
SR leukemia
  GI50: 1.83 µM
  TGI: > 10 µM
